Activity calls are given as the source filed them.

One test addresses Troponin, cardiac muscle (Homo sapiens, UniProt P19429+P45379+P63316). The test can be described thus: Fluorescence-based biochemical high throughput dose response assay for activators of the calcium sensitivity of cardiac Regulated Thin Filaments (RTF). [Related pubchem assays (depositor defined):AID493008, AID493018, AID504382, AID504383]. The format is protein-complex assay.

A further test addresses Ion channel NompC (Danio rerio, UniProt Q7T1G6). Briefly: Dose response cell-based high-throughput screening assay for agonists of the transient receptor potential channel N1 (TRPN1). [Related pubchem assays (depositor defined):AID1424, AID1448]. The test is classed as functional.
The target of the next test is T1, Mucolipin-3 (Homo sapiens, UniProt Q8TDD5).
T1 sequence (Q8TDD5 whole entry): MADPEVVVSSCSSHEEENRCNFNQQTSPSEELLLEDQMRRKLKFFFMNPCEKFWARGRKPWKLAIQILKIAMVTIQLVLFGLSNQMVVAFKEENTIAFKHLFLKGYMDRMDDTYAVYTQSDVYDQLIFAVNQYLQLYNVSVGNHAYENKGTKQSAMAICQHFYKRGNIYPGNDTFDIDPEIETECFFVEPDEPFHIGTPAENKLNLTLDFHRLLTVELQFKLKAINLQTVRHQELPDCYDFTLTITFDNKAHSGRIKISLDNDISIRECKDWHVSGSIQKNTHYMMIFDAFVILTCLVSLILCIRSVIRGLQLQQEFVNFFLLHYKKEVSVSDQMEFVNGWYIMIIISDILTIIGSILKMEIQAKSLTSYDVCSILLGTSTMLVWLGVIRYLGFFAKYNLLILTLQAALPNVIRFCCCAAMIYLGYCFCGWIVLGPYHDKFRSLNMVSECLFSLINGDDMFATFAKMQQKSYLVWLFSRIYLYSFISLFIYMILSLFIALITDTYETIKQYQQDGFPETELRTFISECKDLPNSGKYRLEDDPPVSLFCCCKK
The test can be described thus: Fluorescence counterscreen assay for […] agonists: dose response cell-based high-throughput screening assay to identify agonists of the transient receptor potential channel ML3 (TRPML3). [Related pubchem assays: 1424, 1448 ]. The test is classed as functional. For orientation: A counterscreen serves to expose hits that act by an unwanted route or on another target.

The target of test [1] is T2, Replicative DNA helicase DnaB (Mycobacterium tuberculosis, UniProt P9WMR3).
T2 sequence (P9WMR3 whole entry): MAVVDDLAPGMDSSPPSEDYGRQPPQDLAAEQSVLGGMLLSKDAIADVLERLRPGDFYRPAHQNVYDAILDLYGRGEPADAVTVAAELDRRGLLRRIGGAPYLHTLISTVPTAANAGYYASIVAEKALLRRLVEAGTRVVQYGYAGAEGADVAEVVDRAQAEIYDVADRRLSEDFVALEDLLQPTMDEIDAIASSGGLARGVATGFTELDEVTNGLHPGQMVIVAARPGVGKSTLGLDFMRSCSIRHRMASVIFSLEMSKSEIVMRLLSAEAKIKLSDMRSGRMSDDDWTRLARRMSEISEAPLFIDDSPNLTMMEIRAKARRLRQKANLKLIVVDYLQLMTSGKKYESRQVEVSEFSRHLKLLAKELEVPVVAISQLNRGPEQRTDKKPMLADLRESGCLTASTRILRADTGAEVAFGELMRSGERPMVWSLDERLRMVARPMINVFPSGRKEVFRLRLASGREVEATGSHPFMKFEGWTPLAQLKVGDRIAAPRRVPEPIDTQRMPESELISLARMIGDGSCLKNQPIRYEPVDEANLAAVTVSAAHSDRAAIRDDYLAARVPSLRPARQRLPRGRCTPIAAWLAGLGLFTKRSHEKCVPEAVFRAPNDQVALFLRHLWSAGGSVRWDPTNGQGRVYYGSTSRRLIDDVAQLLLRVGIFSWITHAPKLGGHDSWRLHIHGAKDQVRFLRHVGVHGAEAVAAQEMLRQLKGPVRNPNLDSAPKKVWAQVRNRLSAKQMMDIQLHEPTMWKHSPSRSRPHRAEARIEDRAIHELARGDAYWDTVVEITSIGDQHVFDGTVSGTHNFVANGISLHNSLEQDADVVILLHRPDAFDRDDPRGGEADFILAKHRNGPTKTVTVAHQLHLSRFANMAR
The test can be described thus: DnaB intein splicing inhibitors, dose response, biochemical, cell-free fluorescence (AID 449749). The format is functional.

In the next test the target is T3, Protein RecA (Mycobacterium tuberculosis, UniProt P9WHJ3).
T3 sequence (P9WHJ3 whole entry): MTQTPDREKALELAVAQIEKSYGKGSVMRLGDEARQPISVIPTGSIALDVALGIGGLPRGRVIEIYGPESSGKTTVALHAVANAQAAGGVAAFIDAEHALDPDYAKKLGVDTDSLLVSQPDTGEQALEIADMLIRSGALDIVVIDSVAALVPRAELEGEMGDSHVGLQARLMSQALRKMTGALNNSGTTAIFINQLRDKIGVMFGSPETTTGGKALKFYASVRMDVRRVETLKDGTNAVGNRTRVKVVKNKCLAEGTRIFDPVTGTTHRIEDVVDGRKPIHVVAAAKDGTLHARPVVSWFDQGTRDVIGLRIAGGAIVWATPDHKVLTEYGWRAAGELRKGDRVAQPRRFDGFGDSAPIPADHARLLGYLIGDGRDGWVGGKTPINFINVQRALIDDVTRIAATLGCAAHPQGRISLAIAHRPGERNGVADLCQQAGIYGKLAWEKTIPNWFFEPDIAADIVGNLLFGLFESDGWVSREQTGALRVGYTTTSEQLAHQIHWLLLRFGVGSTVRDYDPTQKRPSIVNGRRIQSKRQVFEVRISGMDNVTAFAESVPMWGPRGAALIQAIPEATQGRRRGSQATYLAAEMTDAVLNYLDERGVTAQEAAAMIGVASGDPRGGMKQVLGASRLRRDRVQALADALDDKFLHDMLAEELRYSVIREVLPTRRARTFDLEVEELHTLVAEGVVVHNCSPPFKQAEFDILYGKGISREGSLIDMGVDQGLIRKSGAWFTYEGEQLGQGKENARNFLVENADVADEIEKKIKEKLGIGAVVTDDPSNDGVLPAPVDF
Briefly: Fluorescence Cell-Free Homogeneous Dose Retest to Identify Inhibitors of RecA-Intein Splicing Activity. [Related pubchem assays (depositor defined):AID2097, AID2223, AID489010, AID492950]. The test is classed as functional.

Test [2] in a line: microbe, parasite or virus in culture. The test is classed as functional. The following applies: Mycobacterium tuberculosis.
For test [3], the target named is DNA dC->dU-editing enzyme APOBEC-3G (Homo sapiens, UniProt Q9HC16). The format is functional.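 Note: Dose-response counterscreen measuring inhibition of APOBEC3G DNA deaminase activity, run while confirming APOBEC3A inhibitors.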
The target in test [4] is DNA dC->dU-editing enzyme APOBEC-3A (Homo sapiens, UniProt P31941). The test can be described thus: Dose Response confirmation of small molecule APOBEC3A DNA Deaminase Inhibitors via a fluorescence-based single-stranded DNA deaminase assay. [Related pubchem assays (depositor defined):AID493011, AID493024]. The test is classed as functional.
Test [5] deals with Peroxisome proliferator-activated receptor gamma/Nuclear receptor coactivator 2 (Homo sapiens, UniProt P37231). Briefly: TR-FRET dose response biochemical High Throughput Screening assay for agonists of the steroid receptor coactivator 2 (SRC-2) recruitment by the peroxisome proliferator-activated receptor gamma (PPAR gamma): non-selective agonists. [Related pubchem assays: 1297, 1032 ]. The test is classed as functional. On the technique in general: In TR-FRET formats the signal depends on donor and acceptor labels being close together.

The target of test [6] is Peroxisome proliferator-activated receptor gamma/Nuclear receptor coactivator 1 (Homo sapiens, UniProt P37231). Briefly: TR-FRET dose response biochemical High Throughput Screening assay for agonists of the steroid receptor coactivator 1 (SRC-1) recruitment by the peroxisome proliferator-activated receptor gamma (PPAR gamma): non-selective agonists. [Related pubchem assays (depositor defined):AID1300, AID1808, AID504735, AID631]. The format is protein assay.

The target in test [7] is Peroxisome proliferator-activated receptor gamma/Nuclear receptor coactivator 3 (Homo sapiens, UniProt P37231). The test can be described thus: TR-FRET dose response biochemical High Throughput Screening assay for agonists of the steroid receptor coactivator 3 (SRC-3) recruitment by the peroxisome proliferator-activated receptor gamma (PPAR gamma): non-selective agonists. [Related pubchem assays: 1301 (Confirmation screen.), 1048 (Primary screen.)]. The test is classed as functional.

In test [8] the target is T4, Epstein-Barr nuclear antigen 1 (Epstein-Barr virus (strain B95-8) (HHV-4) (Human herpesvirus 4), UniProt P03211).
T4 sequence (P03211 whole entry): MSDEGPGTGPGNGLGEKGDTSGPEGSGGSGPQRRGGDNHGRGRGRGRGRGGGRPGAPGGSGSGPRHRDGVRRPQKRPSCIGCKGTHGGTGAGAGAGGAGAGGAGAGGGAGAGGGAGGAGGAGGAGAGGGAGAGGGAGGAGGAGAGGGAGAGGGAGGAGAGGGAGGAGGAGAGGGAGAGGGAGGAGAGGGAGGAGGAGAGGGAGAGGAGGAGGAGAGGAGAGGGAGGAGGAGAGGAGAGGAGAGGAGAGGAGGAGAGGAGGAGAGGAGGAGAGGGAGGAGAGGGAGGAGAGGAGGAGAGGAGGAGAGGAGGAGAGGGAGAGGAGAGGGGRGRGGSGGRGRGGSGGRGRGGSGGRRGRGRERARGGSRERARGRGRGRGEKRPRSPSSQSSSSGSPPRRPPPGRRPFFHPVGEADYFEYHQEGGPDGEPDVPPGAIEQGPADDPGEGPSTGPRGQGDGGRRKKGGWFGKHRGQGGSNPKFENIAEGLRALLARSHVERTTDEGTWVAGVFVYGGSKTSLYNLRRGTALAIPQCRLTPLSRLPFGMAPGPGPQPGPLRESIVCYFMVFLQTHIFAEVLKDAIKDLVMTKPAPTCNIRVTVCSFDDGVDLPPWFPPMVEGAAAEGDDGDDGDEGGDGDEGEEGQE
The test can be described thus: EBNA-1 inhibitors, dose response, biochemical, fluorescence polarization, 1536-well (AID 2381).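 Note: fluorescence polarization of a Cy5 DNA probe bound by EBNA-1 protein.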 On the set-up: species or system human gammaherpesvirus 4.

A further test has as its target Cytochrome P450 2C19 (Homo sapiens, UniProt P33261). The test can be described thus: Cytochrome panel assay with activity outcomes. Panel member name: p450-cyp2c19 Compounds with AC50 equal or less than 10 uM are considered active. The test is classed as functional. The following applies: read-out: AC50.
The target of test [9] is DNA damage-inducible transcript 3 protein (Mus musculus, UniProt P35639). The test is classed as functional, Cricetulus griseus.
Test [10] concerns the target T5, Lytic switch protein BZLF1 (Epstein-Barr virus (strain B95-8) (HHV-4) (Human herpesvirus 4), UniProt P03206).
T5 sequence (P03206 whole entry): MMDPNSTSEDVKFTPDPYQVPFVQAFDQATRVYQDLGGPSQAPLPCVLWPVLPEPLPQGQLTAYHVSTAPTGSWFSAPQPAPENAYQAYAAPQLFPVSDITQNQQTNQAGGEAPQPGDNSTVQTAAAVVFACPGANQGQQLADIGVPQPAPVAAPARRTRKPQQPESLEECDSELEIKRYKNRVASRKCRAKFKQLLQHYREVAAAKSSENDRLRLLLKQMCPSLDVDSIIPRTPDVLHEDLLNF
The test can be described thus: EBV ZTA inhibitors, dose response, counter-screen for EBNA-1 inhibitor project, biochemical, fluorescence polarization, Epstein-Barr virus, 1536-well (AID 2377).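 Note: fluorescence polarization of Cy5-labelled ZRE DNA probe bound by purified Zta.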 On the set-up: species or system human gammaherpesvirus 4.

Consider `COc1cc(CCCN2C(S)=NC[C@@H]2CC2CCCCC2)cc(OC)c1OC`, for which the EC50 at Troponin, cardiac muscle was > 71.5 µM (inactive).
As to `Cc1cc(O)nc(SCC(=O)Nc2ccccc2C)n1`, the values for the EC50 at Ion channel NompC and on Mucolipin-3 were > 29.9 µM (inactive) and > 29.9 µM (not active), respectively.
For `Cc1cccc(/C=N/NC(=O)C(C)Nc2cccc3ccccc23)n1` (stereo not drawn), the EC50 at Troponin, cardiac muscle was 10.5 µM (inactive); on Protein RecA, 47.1 µM (active). Also, in test [1], the AC50 was 3.78 µM (active).
On to `C/C(=C1/C(=O)N(c2ccc([N+](=O)[O-])cc2)N=C1c1ccccc1)N(C)C`, for which the EC50 at Ion channel NompC is 3.71 µM (active); on Mucolipin-3, 5.21 µM (active). Moreover, the CC50 in test [2] is 10.6 µM (active).
For the molecule `COc1ccc(C)cc1NC(=O)CCCN1C(=O)NC(C)(C)C1=O`, the IC50 in test [3] is 11.9 µM (active); in test [4] it was 11 µM (active).
In the case of `CSc1oc(-c2ccccc2)nc1C(N)=O`, the EC50 was 60.1 µM (not active) in [5], 359 µM (inactive) in test [6] and > 79.4 µM (not active) in test [7].
Consider `Cc1cccc(OCC(=O)N/N=C\C=C\c2ccc3c(c2)OCO3)c1C`, for which the results for the IC50 in test [8] and in [10] were 5.84 µM (active) and > 111 µM (not active), respectively. The AC50 on Cytochrome P450 2C19 was 10 µM (inconclusive). Moreover, in test [9], the “Absolute IC50 (CHOP)” value was found to be 10 µM.

The EC50 is the midpoint of the concentration-response curve. As usually defined, the AC50 is the midpoint of the concentration-response curve, whichever way the signal moves. A word on the IC50: it is the point on the concentration scale where inhibition reaches its midpoint.

The values above are taken from ChEMBL document CHEMBL1201862, “PubChem BioAssay data set” (2004).
